Laboratory results from US20250163057A1, “DCN-1 MODULATING COMPOUNDS AND METHODS OF USE THEREOF” (Cellarity, Inc., priority 2023, published 2025).
Read-outs that look alike come from different tables or passages of the source.

Legend:
[1] = test system: Cullin-3 (CUL3) neddylation; assay: AlphaLISA assay for Cullin-3 (CUL3) neddylation in TF 1 cells; assay type: cell-based; conditions: 3 hours treatment
Description: An AiphaLISA assay was performed to evaluate the ability of the compounds to suppress neddylation, which is downstream from DCN-1 and DCN-2. A stronger inhibition of DCN-1 and DCN-2 is expected to result in a suppression of neddylation as shown by a lower AlphaLISA signal. The AlphaLISA assay for detecting Cullin-3 (CUL3) neddylation was performed according to manufacturer instructions (Revvity, Hopkinton, MA). Briefly, TF 1 cells (ATCC) were plated in Iscove's Modified Dulbecco's Medium (IMIDM) without supplements in 384-well plates. These cells were treated with […] for 3 hours before lysing them with AlphaLISA lysis buffer, 5× (Revvity). To detect the level of CUL3 neddylation, biotinylated anti-NEDD8 antibody, was added followed by AlphaLISA Acceptor beads conjugated with anti-CUL3 antibody. After overnight incubation, Streptavidin-coated Alpha Donor beads were added and incubated for 1 hour. The AlphaLISA signal was then read on a VICTOR Nivo Multimode Microplate Reader (Revvity, Hopkinton, MA). The positive control was 1 μM DI-1548, which is reported to reduce CUL3 neddylation, also referred to as C-1 in Example 41 (Zhou et al. Nature Comm. 2021). The neddylation signal was normalized such that the percent inhibition is 0% for vehicle control and 100% for positive control. The dose-response curves were fitted with the Hill equation to obtain IC50 values (Graphpad Prism).

[2] = biological target: DCN1 (DCUND1) protein PONY domain (Homo sapiens (Human), UniProt Q96GG9); assay: TR-FRET assay, DCN1 binding with FAM-labeled probe
DCN1 (DCUND1) protein PONY domain, sequence (Q96GG9 60-248): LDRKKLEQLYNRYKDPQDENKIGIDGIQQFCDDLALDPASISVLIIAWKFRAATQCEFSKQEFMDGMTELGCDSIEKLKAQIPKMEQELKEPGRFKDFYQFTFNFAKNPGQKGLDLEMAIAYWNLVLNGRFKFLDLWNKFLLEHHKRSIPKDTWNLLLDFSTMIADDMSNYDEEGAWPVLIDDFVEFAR
Outline: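 TR-FRET ratio (Tb-DCN1 to FAM-probe) read at 1, 5 and 24 hrs after compound addition. Protein: recombinant PONY domain from E. coli, biotinylated and coupled to streptavidin terbium. Either 5 nM DCN1 with 20 nM FAM-probe, or 0.31 nM DCN1 with 100 nM FAM-labelled plus 800 nM unlabelled probe.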

[3] = 24 hr after treatment with compound, read-out: TR FRET IC50 24 hr
[4] = TR FRET IC50 1 hr (nM), 1 hr after treatment with compound
[5] = read-out: TR FRET IC50 1 hr, 1 hr after treatment with compound

Row | Structure (SMILES) | IC50 ([1]; Homo sapiens, TF-1, 3 h) | IC50 [2, 3] | IC50 [2, 4] | IC50 [2, 5] | IC50 [1]
1 | CCN1C(=O)[C@@H](NC(=O)c2cccc(C(F)(F)F)c2)[C@@H](c2ccc(F)cc2)c2c([C@@H](CCO)NC#N)nn(-c3ccccc3)c21 (mixture of isomers) [Compound I-567, N-(rac-(4S,5S)-3-((R)-1-cyanamido-3-hydroxypropyl)-7-ethyl-4-(4-fluorophenyl)-6-oxo-1-phenyl-4,5,6,7-tetrahydro-1H-pyrazolo[3,4-b]pyridin-5-yl)-3-(trifluoromethyl)benzamide] | > 1000 nM | 1000 to 3000 nM | 1000 to 3000 nM | – | –
2 | CCN1C(=O)[C@@H](NC(=O)c2cccc(C(F)(F)F)c2)[C@@H](c2ccc(F)nc2)c2c(C(=O)N3CCC[C@H]3C#N)nn(C3CC3)c21 (mixture of isomers) [Compound I-585] | 100 to 1000 nM | ≤ 200 nM | 1000 to 3000 nM | – | –
3 | CCN1C(=O)[C@@H](NC(=O)c2cccc(C(F)(F)F)c2)[C@@H](c2ccc(F)cc2)c2c([C@@H](CN(C)C)NC(N)=O)nn(-c3ccccc3)c21 (mixture of isomers) [Compound I-673] | > 1000 nM | 200 to 1000 nM | 200 to 1000 nM | – | –
4 | CCN1C(=O)[C@@H](NC(=O)c2cccc(C(F)(F)F)c2)[C@@H](c2ccc(F)cc2)c2c(C(F)CNC#N)nn(-c3ccccc3)c21 (mixture of isomers) [Compound I-679] | ≤ 100 nM | ≤ 200 nM | 200 to 1000 nM | – | –
5 | CCN1C(=O)[C@@H](NC(=O)c2cccc(C(F)(F)F)c2)[C@@H](c2ccccn2)c2c([C@@H](C)NC#N)nn(-c3ccccc3)c21 (mixture of isomers) [Compound I-680] | ≤ 100 nM | ≤ 200 nM | 200 to 1000 nM | – | –
6 | CCN1C(=O)[C@@H](NC(=O)c2cccc(C(F)(F)F)c2)[C@@H](c2ccc(F)cc2)c2c(C(=O)N3CC[C@H](NC)[C@H]3C#N)nn(C3CCOCC3)c21 (mixture of isomers) [Compound I-693, N-((4S,5S)-3-(trans-(2S,3S)-2-cyano-3-(methylamino)pyrrolidine-1-carbonyl)-7-ethyl-4-(4-fluorophenyl)-6-oxo-1-(tetrahydro-2H-pyran-4-yl)-4,5,6,7-tetrahydro-1H-pyrazolo[3,4-b]pyridin-5-yl)-3-(trifluoromethyl)benzamide] | ≤ 100 nM | ≤ 200 nM | – | ≤ 200 nM | –
7 | CCN1C(=O)[C@H](NC(=O)c2cccc(C(F)(F)F)c2)[C@@H](c2ccc(F)cc2)c2c(C3(N(C)C#N)CC3)nn(-c3ccccc3)c21 (racemic) [Compound I-76] | > 1000 nM | 1000 to 3000 nM | 1000 to 3000 nM | – | –
8 | CCN1C(=O)[C@H](NC(=O)c2cccc(C(F)(F)F)c2)[C@@H](c2ccc(F)cc2)c2c(C3(NC#N)CC3)nn(-c3ccccc3)c21 (racemic) [Compound I-84] | > 1000 nM | 1000 to 3000 nM | 1000 to 3000 nM | – | –
9 | CCN1C(=O)[C@@H](NC(=O)c2cccc(C(F)(F)F)c2)[C@@H](c2ccc(F)cc2)c2c(CNC(=O)/C=C(\C)C(=O)OC)nn(-c3ccccc3)c21 (racemic) [Compound I-150, rac-methyl (E)-4-((((4R,5R)-7-ethyl-4-(4-fluorophenyl)-6-oxo-1-phenyl-5-(3-(trifluoromethyl)benzamido)-4,5,6,7-tetrahydro-1H-pyrazolo[3,4-b]pyridin-3-yl)methyl)amino)-2-methyl-4-oxobut-2-enoate] | > 1000 nM | 200 to 1000 nM | 1000 to 3000 nM | – | –
10 | CCN1C(=O)[C@@H](NC(=O)c2cccc(C(F)(F)F)c2)[C@@H](c2ccc(F)cc2)c2c(CN(C#N)CCO)nn(-c3ccccc3)c21 (racemic) [Compound I-244, ˜{N}—[˜{rac}-(4˜{S},5˜{S})-3-[[cyano(2-hydroxyethyl)amino]methyl]-7-ethyl-4-(4-fluorophenyl)-6-oxo-1-phenyl-4,5-dihydropyrazolo[3,4-b]pyridine-5-yl]-3-(trifluoromethyl)benzamide] | 100 to 1000 nM | 200 to 1000 nM | 1000 to 3000 nM | – | –
11 | CCN1C(=O)[C@@H](NC(=O)c2cccc(C(F)(F)F)c2)[C@@H](c2ccc(F)cc2)c2c(C(=O)N(C)CC#N)nn(-c3ccccc3)c21 (racemic) [Compound I-398] | – | 1000 to 3000 nM | 1000 to 3000 nM | – | > 1000 nM
12 | CCN1C(=O)[C@@H](NC(=O)c2cccc(C(F)(F)F)c2)[C@@H](c2ccc(F)cc2)c2c(C(=O)N(CC#N)CCN(C)C)nn(-c3ccccc3)c21 (racemic) [Compound I-448] | > 1000 nM | ≤ 200 nM | – | ≤ 200 nM | –
13 | CCN1C(=O)[C@@H](NC(=O)c2cccc(C(F)(F)F)c2)[C@@H](c2ccc(F)cc2)c2c(CN(C#N)CCN(C)C)nn(-c3ccccc3)c21 (racemic) [Compound I-486] | ≤ 100 nM | ≤ 200 nM | 200 to 1000 nM | – | –
14 | CCN1C(=O)[C@@H](NC(=O)c2cccc(C(F)(F)F)c2)[C@@H](c2ccc(F)cc2)c2c(NC(=O)C3=CCCN(C)C3)nn(-c3ccccc3)c21 (racemic) [Compound I-488] | ≤ 100 nM | ≤ 200 nM | 200 to 1000 nM | – | –
15 | CCN1C(=O)[C@H](NC(=O)c2cccc(C(F)(F)F)c2)[C@H](c2ccc(F)cc2)c2c(C(=O)N(CC#N)C3COC3)nn(-c3ccccc3)c21 (racemic) [Compound I-603] | 100 to 1000 nM | ≤ 200 nM | 1000 to 3000 nM | – | –
16 | CCN1C(=O)[C@@H](NC(=O)c2cccc(C(F)(F)F)c2)[C@@H](c2ccc(F)cc2)c2c(C(C)=O)nn(-c3ccccc3)c21 (racemic) [Compound I-649] | > 1000 nM | 1000 to 3000 nM | 1000 to 3000 nM | – | –
17 | CCN1C(=O)[C@@H](NC(=O)c2cccc(C(F)(F)F)c2)[C@@H](c2ccc(F)cc2)c2c(C(=O)N(C)C3(C#N)CCC3)nn(-c3ccccc3)c21 (racemic) [Compound I-689] | 100 to 1000 nM | ≤ 200 nM | 1000 to 3000 nM | – | –
18 | CCN1C(=O)[C@@H](NC(=O)c2cccc(C(F)(F)F)c2)[C@@H](C2CC2)c2c(C(=O)N3CC[C@@H](NC)[C@@H]3C#N)nn(C3CCOCC3)c21 (relative stereo) [Compound I-421, N-((4S,5S)-3-((2R*,3R*)-2-cyano-3-(methylamino)pyrrolidine-1-carbonyl)-4-cyclopropyl-7-ethyl-6-oxo-1-(tetrahydro-2H-pyran-4-yl)-4,5,6,7-tetrahydro-1H-pyrazolo[3,4-b]pyridin-5-yl)-3-(trifluoromethyl)benzamide] | 100 to 1000 nM | ≤ 200 nM | 1000 to 3000 nM | – | –
19 | CN1C(=O)[C@H](NC(=O)c2cccc(C(F)(F)F)c2)[C@H](C2CC2)c2c(C(=O)N3[C@H](C#N)C[C@H]4C[C@H]43)nn(C3CCOCC3)c21 (relative stereo) [Compound I-528, N-((4R*,5R*)-3-((1 R,3S,5R)-3-cyano-2-azabicyclo[3.1.0]hexane-2-carbonyl)-4-cyclopropyl-7-methyl-6-oxo-1-(tetrahydro-2H-pyran-4-yl)-4,5,6,7-tetrahydro-1H-pyrazolo [3,4-b]pyridin-5-yl)-3-(trifluoromethyl)benzamide] | > 1000 nM | 1000 to 3000 nM | 1000 to 3000 nM | – | –
